Measured values: patent US20250282723A1, “AMYLOID TARGETING AGENTS AND METHODS OF USING THE SAME” (The Regents of the University of California, priority 2021, published 2025)
Where “and” joins values, the source holds several entries; their conditions need not be identical. Equal values may be shown once.

Key:
[1] = target: T1, aggregated Aβ (1-42) peptides (Homo sapiens, UniProt P05067); test: Estimation of binding constant (KD) to aggregated Aβ (1-42) peptides; conditions: aggregated Aβ(1-42) 5 μM, increasing concentration of probe, 5% DMSO in nanopure water
T1 construct: Synthetic Aβ (1-42) peptide was purchased from Biopeptide, Co LLC; purchased Biopeptide, Co LLC (San Diego, California); host or cells: chemical synthesis
T1 sequence (P05067 672-713): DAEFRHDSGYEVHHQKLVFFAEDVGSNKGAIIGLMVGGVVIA
Protocol: (§1) Preparation of aggregated Aβ (1-42) peptides. Synthetic Aβ (1-42) peptide was purchased from Biopeptide, Co LLC (San Diego, California). Aggregated Aβ (1-42) was prepared as previously described.^26 Briefly, Aβ (1-42) was dissolved in 100% 1,1,1,3,3,3,-hexafluoro-2-propanol (HFIP) to a concentration of 1 mM and put on a shaker at room temperature (RT) for 24 hours. The solution was then diluted in cold nanopure water (2:1 H2O: HFIP). Aliquoted fractions were lyophilized for 3 days before dissolving in nanopure water to a concentration of 100 μM. Aggregated Aβ solutions were incubated and shaken at 37° C. for 3 days before use. The formation of soluble aggregates (67% fibrils as a mixture with 13% oligomers and 20% monomer) was confirmed using a standard thioflavin T (ThT) assay and by Sodium Dodecyl Sulphate-Polyacrylamide Gel Electrophoresis (SDS-PAGE) gel analysis (FIG. 11 and FIG. 12).
Estimation of Binding Constant (KD) to aggregated Aβ (1-42) peptides. Aggregated Aβ(1-42) at a final concentration of 5 μM (based on the molecular weight of monomer) was mixed with increasing concentration of each probe in 5% DMSO in nanopure water. KD's were determined as previously described.^21
(§2) Synthetic Aβ (1-42) peptide was purchased from Biopeptide, Co LLC (San Diego, California). Aggregated Aβ (1-42) was prepared as previously described.^32 Briefly, monomeric Aβ (1-42) was dissolved in 100% 1,1,1,3,3,3,-hexafluoro-2-propanol (HFIP) to a final concentration of 1 mM and dissolved on a shaker at RT for 24 hours. This solution was then diluted with cold nanopure water (2:1 H2O:HFIP) and aliquoted into fractions. These samples were then lyophilized for 3 days before dissolving in nanopure water to a final concentration of 100 μM. AD solutions were aggregated by incubating and shaking at 37° C. for 3 days before use. The formation of soluble aggregates was confirmed using a standard Thioflavin T (ThT) assay and by SDS-PAGE gel analysis.^1
(§3) Aggregated Aβ(1-42) or αS at a final concentration of 5 μM (based on the molecular weight of the monomer) was mixed with an increasing concentration of each probe in 5% DMSO in nanopure water. Kd's were calculated as previously described.^34 The measurements for each probe were repeated in technical triplicates and the averages are shown with standard deviations. Kd's for probes 1-3 with aggregated Aβ(1-42) have been reported previously.^31

aggregated αS [2] = target: T2, aggregated αS (Homo sapiens, UniProt P37840); test: Estimation of binding constant (Kd) to aggregated αS; conditions: probes of FIG. 14; aggregated αS 5 μM, increasing concentration of probe, 5% DMSO in nanopure water
T2 construct: made in house; host or cells: E. coli BL21 (plasmid pET5α aSynWT)
Protocol: (§4) Expression and purification of recombinant α-synuclein was followed as reported previously.^32 Briefly, α-synuclein was purified from BL21 E. coli as described: A starter culture of transformed bacteria (pET5α aSynWT) (LB broth with ampicillin [final concentration: 100 μg/mL]) was incubated overnight. Following incubation, 25 mL of the started culture was added to a 500 mL mixture of LB broth and ampicillin. Protein expression was induced by addition of IPTG [0.119 g/500 mL] when an OD600 between 0.5-0.8 was achieved. After 4 h, flasks were centrifuged (5,000×g for 20 min) and the supernatant was removed. The pellets were then re-suspended in 20 mM Tris, 25 mM NaCl, 1 mM EDTA, pH 8.0, transferred into a flask, boiled for 1-2 minutes in a microwave, and boiled in a water bath (90° C.) for 30 minutes. Samples were then centrifuged (18,000×g for 30 min) and the supernatant was collected and filtered through a 0.2 μm filter. α-synuclein protein was further purified using 2×5 ml HiTrapQ HP anion exchange columns (GE, #17-1153-01) followed by Size Exclusion Column (Superdex 200, #28-9893-35). Pure α-synuclein determined by Coomassie and western blot were lyophilized and stored at −80° C. until use.
(§5) Aggregation of purified α-synuclein was followed as reported previously.^33 The lyophilized powder was dissolved to a final concentration of 100 μM in sodium phosphate buffer (50 mM, pH 7.4) with 0.1 mM EDTA and 0.02% sodium azide (w/v) and was aggregated at 37° C. with shaking at 500 rpm for 3 weeks. Fibrillization was confirmed by SDS-PAGE gel and standard ThT assay.
as §3

[3] = target: T1, aggregated Aβ (1-42) peptides; test: Fluorescence excitation/emission and fluorescence enhancement of probes bound versus unbound to aggregated Aβ (1-42) peptides; type: binding; conditions: probe 4 μM; for Em (λmax) (with Aβ) / Ex (λmax) (with Aβ): aggregated Aβ (1-42) 5 μM; for Em (λmax) (with Aβ) / Ex (λmax) (with Aβ) / Fold Increase with Aβ / Emmax (with Aβ): 5% DMSO in nanopure water; for Fold Increase with Aβ: fluorescence intensity with aggregated Aβ (1-42) 5 μM vs probe alone, at λmax of the amyloid-bound state; for Emmax (with Aβ) / FI with Aβ: probes of FIG. 14, aggregated Aβ(1-42) 5 μM; for FI with Aβ: fold increase of fluorescence, bound vs unbound
Protocol: as §1
(§6) Estimation of fluorescence enhancement of probes when bound versus unbound to aggregated Aβ (1-42) peptides. Aggregated Aβ (1-42) at a final concentration of 5 μM (based on the molecular weight of monomer) was mixed with each fluorescent probe at a final concentration of 4 μM in 5% DMSO in nanopure water. The solution (80 μL) was transferred to a black opaque 96 well plate and the fluorescence was read using a microplate reader. For all probes, the relative fluorescence enhancement of the bound versus unbound state was estimated by comparing the intensity at λmax of the amyloid-bound state.
as §2
(§7) Aggregated αS or Aβ(1-42) at a final concentration of 5 μM (based on the molecular weight of monomer) was mixed with each fluorescent probe at a final concentration of 4 μM in 5% DMSO in nanopure water. The solution (80 μL total volume) was transferred to a black opaque 96 well plate and the fluorescence excitation and emission were read using a microplate reader. For emission fluorescence enhancement, the relative fluorescence enhancement of the bound versus unbound state was estimated by comparing the fluorescence intensity at λmax of the amyloid-bound state.

[4] = Fluorescence excitation and emission spectra of free (unbound) probes in aqueous solution; type: physicochemical; conditions: for Em (λmax) (Free) / Ex (λmax) (Free): free probe in aqueous solution; for Emmax (Free): probes of FIG. 14, free; for fluorescence intensity of the free probe in aqueous solution compared to ARCAM (1): free probes in aqueous solution, FIG. 2
Protocol: as §6, §7

aggregated αS [5] = target: T2, aggregated αS; test: Fluorescence emission and fluorescence enhancement of probes bound versus unbound to aggregated αS; type: binding; conditions: probes of FIG. 14; for Emmax (with αS) / FI with αS: aggregated αS 5 μM, probe 4 μM; for Emmax (with αS): 5% DMSO in nanopure water; for FI with αS: fold increase of fluorescence, bound vs unbound; for FI αS/Aβ: selectivity of fluorescence response to αS fibrils over Aβ fibrils
Protocol: as §4, §5, §7

| Compound | Kd [1] [µM] | Kd (aggregated αS [2]) [µM] | Em (λmax) (with Aβ) [3] [nm] | Ex (λmax) (with Aβ) [3] [nm] | Fold Increase with Aβ [3] | Fold Increase with Aβ ([3]; listed as ARCAM (1)) [fold] | Emmax (with Aβ) [3] [nm] | FI with Aβ [3] | Em (λmax) (Free) [4] [nm] | Ex (λmax) (Free) [4] [nm] | Emmax (Free) [4] [nm] | Emmax (with αS) (aggregated αS [5]) [nm] | FI with αS (aggregated αS [5]) | FI αS/Aβ (aggregated αS [5]) | fluorescence intensity of the free probe in aqueous solution compared to ARCAM (1) [4] |
| --- | --- | --- | --- | --- | --- | --- | --- | --- | --- | --- | --- | --- | --- | --- | --- |
| COCCOCCOCCNC(=O)C(C#N)=Cc1ccc2cc(N3CCCCC3)ccc2c1 (mixture of isomers) [Compound 1] | 6.3 ± 0.7 | 3.9 ± 3.9 | 560 ± 10 | 421 ± 4 | 2.1 ± 0.7 fold | 2.1 | 560 | 2.1 ± 0.7 | 590 ± 4 | 409 ± 11 | 590 | 539 | 3.0 ± 0.5 | 1.4 | – |
| COCCOCCOCCNC(=O)/C(C#N)=C/c1ccc2cc(N3CCCCC3C)ccc2c1 (racemic) [Compound 4, (E)-2-cyano-N-(2-(2-(2-methoxyethoxy)ethoxy)ethyl)-3-(6-(2-methylpiperidin-1-yl)naphthalen-2-yl)acrylamide] | 4.4 ± 2.3 | 4.5 ± 1.6 | 559 ± 8 | 439 ± 3 | 1.9 fold and 1.9 ± 0.5 fold | – | 559 | 1.9 ± 0.5 | 583 ± 1 | 431 ± 4 | 583 | 531 | 3.8 ± 0.4 | 2.0 | lower but similar in magnitude to ARCAM (1) |
| CCC1CCCCN1c1ccc2cc(/C=C(\C#N)C(=O)NCCOCCOCCOC)ccc2c1 (racemic) [Compound 5, (E)-2-cyano-3-(6-(2-ethylpiperidin-1-yl)naphthalen-2-yl)-N-(2-(2-(2-methoxyethoxy)ethoxy)ethyl)acrylamide] | 3.2 ± 0.6 | 5.8 ± 1.8 | 567 ± 5 | 443 ± 5 | 1.2 fold and 1.2 ± 0.1 fold | – | 567 | 1.2 ± 0.1 | 575 ± 6 | 445 ± 1 | 575 | 534 | 4.6 ± 0.7 | 3.8 | lower but similar in magnitude to ARCAM (1) |
